{"source": "patent US6713098B2", "about": "“Phytochemotherapy for cancer” (priority 2001, dated 2004)", "test_system": "MCF-7 cells", "assay": "Cell growth inhibition by [3H]thymidine incorporation, PRPC fractions and PRPC/IEC/RPC sub-fractions", "assay_type": "cell-based, human", "procedure": "(§1) Sub-confluent cells were serum-starved overnight and then were left untreated, i.e., no serum (−), were treated with serum (+) or with isolated V. amygdalina fractions 8, 9, 10, 14, 15, 16, 17, 18, 19, or 20 for 18 hours. Following incubation, all cells were pulsed with 1 μCi/ml [^3H]thymidine for an additional 4-6 hours as described in Example 2. The results represent the mean ±SD of three independent experiments. *P<0.05; **P<0.01.\nas §1, with “100 μg/ml of” for “isolated”, “fractions” for “fractions 8, 9, 10, 14,”\nSub-confluent cells were serum-starved overnight and then were left untreated, i.e., no serum (−), were treated with serum (+) or with 100 ng/ml of V. amygdalina fractions 19-5-16, 19-5-17, or 19-5-13 for 18 hours. […]\nFraction 19 of the PRPC separation described in Example 3 was subjected to IEC fractionation as described in Example 4 to produce 10 IEC sub-fractions designated IEC sub-fractions 19-1 to 19-10. […] Finally, Two RPC sub-fractions, specifically 19-5-16 and 19-5-17, were further analyzed and shown to be pure peptides. […]"}
{"substance": "19-5-16 (DTKDVVNVTG)", "values": [{"measurement": "inhibition of cell DNA synthesis", "setting": "100 nanograms/ml, MCF-7, FIG. 5", "result": 4, "unit": "fold"}, {"measurement": "potency in growth inhibition assay (in words)", "setting": "RPC sub-fractions of 19-5, assay as in Example 6", "result": "exceptionally high potency"}]}
